Results on eight molecules are retold here after PubChem BioAssay (NCI).

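Growth conditions: 96-well plates. Treatment: test compound, 48 hours, 5 concentrations. Analysis: linear interpolation between bracketing concentrations; unreached endpoints set to highest concentration. The concentration for full growth arrest is given as TGI.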

Experiment in all cases: DTP human tumour cell line panel, 48 h
Test [1] concerns SF-295 CNS.
For test [2], the system named is T-47D breast.
Test [3] relates to A549 NSCLC.
In test [4] the test system is BT-549 breast.
For test [5], the system named is HCT-15 colon.
In test [6] the test system is MDA-N.
Test [7] deals with DU-145 prostate.
Test [8] deals with MALME-3M melanoma.
Test [9] deals with CAKI-1 renal.
Test [10] deals with HS 578T breast.
The test system of test [11] is K-562 leukemia.
Test [12] relates to SF-539 CNS.
Test [13] has as its system SNB-75 CNS.
In test [14] the test system is SR leukemia.
Test [15] relates to OVCAR-5 ovarian.
Test [16] relates to MDA-MB-435.
For test [17], the system named is NCI-H226 lung.
Test [18] concerns NCI-H522 lung.
Test [19] has as its system NCI-H460 lung.
In test [20] the test system is HOP-62 NSCLC.

The term TGI denotes the concentration at which net growth stops. `Cc1ccc(S(=O)(=O)ON2C(=O)c3c(N)c(C#N)c(-c4ccccc4)c(-c4ccccc4)c3C2=O)cc1`: the TGI in test [1] amounted to 92.8 µM; in test [2], 38.1 µM; in test [3], 43 µM; in test [4] it was 34.8 µM; in test [5], 37.6 µM; in test [6] it was 32.2 µM. Moreover, the concentration for total growth inhibition (TGI) was 67.1 µM in [7]; 45.8 µM in test [8]; 29.8 µM in [9]; above 100 µM in test [10]; above 100 µM in test [11]; 58.2 µM in [12]. The TGI in test [13] is above 100 µM; in test [14], 35.9 µM; in test [15], 60 µM; in test [16], 22.1 µM; in [17], 38.7 µM; in [18], 33.2 µM. Besides, in test [19], the TGI is above 100 µM.

For the molecule `CC(=O)O[C@H]1CC[C@@]2(C)C(=CC[C@@H]3[C@@H]2CC[C@](C)(c2nnc(C)o2)[C@H]3CC#N)C1`, the concentration for total growth inhibition (TGI) in test [1], in [2], in test [3], in [4], in test [5] and in test [6] was above 100 µM in each case. The TGI in [7], in test [8], in test [9], in test [10], in test [11] and in test [12] was above 100 µM throughout. For the same molecule, the total growth inhibition concentration (TGI) in [13], in test [14], in test [15], in test [16], in test [20] and in [17] was above 100 µM each time. In test [18], this molecule had a TGI above 100 µM.

Take `CC(CNC(=O)c1ccccc1)(CNC(=O)c1ccccc1)[N+](=O)[O-]`: the TGI in test [1], in [2], in test [3], in test [4], in test [5] and in [6] was above 100 µM throughout. Further, the TGI in [7], in test [8], in test [9], in test [10], in test [11] and in [12] was above 100 µM in each case. Further, the TGI in test [13], in [14], in [15], in test [16], in test [17] and in test [18] was above 100 µM throughout. In test [19], this molecule yielded a concentration for total growth inhibition (TGI) above 100 µM.

As for `CC(Cc1cccc2c1Nc1ccccc1S2)N(C)CCO` (stereo not given), the TGI in test [1], in test [2], in test [3], in test [4], in [5] and in test [6] was above 100 µM each time. Also, the TGI in test [7], in test [8], in test [9], in test [10], in [11] and in test [12] was above 100 µM each time. Besides, the TGI in test [14], in test [15], in test [16], in test [20], in [17] and in test [18] was above 100 µM each time. In test [19], this molecule gave a TGI above 100 µM.

`CCOC(=O)C1(C#N)C(C#N)(C#N)C1(C#N)C#N`: the TGI in test [1], in test [2], in test [3], in test [4], in test [5] and in [6] was above 100 µM throughout. Also, the concentration for total growth inhibition (TGI) in test [7], in test [8], in test [9], in test [10], in test [11] and in [14] was above 100 µM in each case. Also, the total growth inhibition concentration (TGI) in test [15], in test [16], in [20], in test [17], in test [18] and in test [19] was above 100 µM each time.

As for `Cc1cc(C)c(S(=O)(=O)N(CCCN)OCCON(CCCN)S(=O)(=O)c2c(C)cc(C)cc2C)c(C)c1`, the concentration for total growth inhibition (TGI) in [1] was 67 µM; in test [2], above 45.1 µM; in test [3] it was above 100 µM; in [4], 66.2 µM; in test [5] it was 70.5 µM; in test [6], 8.22 µM. Moreover, the concentration for total growth inhibition (TGI) in test [7] was above 100 µM; in test [8], 3.8 µM; in test [9] it was above 71.4 µM; in test [10] it was 30.3 µM; in [11], above 100 µM; in test [13] it was 12.6 µM. Besides, the concentration for total growth inhibition (TGI) in [14] was above 100 µM; in test [15] it was 4.99 µM; in test [16], above 23.6 µM; in test [20] it was 11.5 µM; in test [17] it was 18.1 µM; in test [18] it was 13.6 µM. In test [19], this molecule returned a total growth inhibition concentration (TGI) of 17 µM.

As for `O=c1nc2c(c(-c3ccc(F)cc3)[nH]1)COC/C2=C\c1ccc(F)cc1`, the concentration for total growth inhibition (TGI) in [1], in test [2], in test [4], in [5], in test [6] and in test [7] was above 100 µM each time. Also, the concentration for total growth inhibition (TGI) in test [9], in test [10], in test [11], in test [12], in [13] and in test [14] was above 100 µM in each case. For the same molecule, the concentration for total growth inhibition (TGI) in [15], in [16], in [20], in test [17], in [18] and in [19] was above 100 µM in each case.

For the molecule `Cn1nc(-c2ccccc2)c2c(-c3ccccc3)c3cc(Cl)ccc3nc21`, the TGI in [1] is above 100 µM; in test [2] it was above 100 µM; in [3], above 100 µM; in [4], above 100 µM; in test [5], above 22.9 µM; in [6] it was above 100 µM. The TGI in [7], in test [8], in test [9], in test [10], in test [11] and in test [13] was above 100 µM in each case. In addition, the TGI in test [14], in test [15], in test [16], in test [20], in test [17] and in test [18] was above 100 µM throughout. This molecule also returned a TGI in test [19] above 100 µM.
